Data taken from patent US20240239861A1, “GLUCAGON-RECEPTOR SELECTIVE POLYPEPTIDES AND METHODS OF USE THEREOF” (i2O Therapeutics, Inc., priority 2016, published 2024).
“Also recorded” adds a separate entry of the source. Like-named read-outs stand apart in the source and are kept apart here. Where a SMILES comes first, the peptide text is derived from it. [ ]: non-standard residue; d: D form. Aib = CC(C)(N)C(=O)O

Assays:
[1] = target: human GCGR (Homo sapiens, UniProt P47871); test: Peptide-receptor mediated cAMP accumulation (LANCE Ultra cAMP) in CHO-K1 cells transfected with human GCGR; type: cell-based
Chain of human GCGR (P47871 26-477): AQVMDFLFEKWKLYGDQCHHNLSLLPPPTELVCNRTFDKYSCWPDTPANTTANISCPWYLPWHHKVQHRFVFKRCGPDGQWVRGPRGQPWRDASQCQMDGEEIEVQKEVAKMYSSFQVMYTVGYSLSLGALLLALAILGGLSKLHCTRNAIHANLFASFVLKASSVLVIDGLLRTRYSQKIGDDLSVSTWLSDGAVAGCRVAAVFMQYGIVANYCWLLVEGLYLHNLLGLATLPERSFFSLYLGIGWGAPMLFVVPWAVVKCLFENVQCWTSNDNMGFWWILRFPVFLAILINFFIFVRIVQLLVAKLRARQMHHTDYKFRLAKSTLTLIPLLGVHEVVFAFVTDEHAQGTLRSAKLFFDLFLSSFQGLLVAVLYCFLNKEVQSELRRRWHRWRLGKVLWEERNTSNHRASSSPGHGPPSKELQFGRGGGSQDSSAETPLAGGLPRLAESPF

[2] = target: human GLP-1R (Homo sapiens, UniProt P43220); test: Peptide-receptor mediated cAMP accumulation (LANCE Ultra cAMP) in CHO-K1 cells transfected with human GLP-1R; type: cell-based
Chain of human GLP-1R (P43220 24-463): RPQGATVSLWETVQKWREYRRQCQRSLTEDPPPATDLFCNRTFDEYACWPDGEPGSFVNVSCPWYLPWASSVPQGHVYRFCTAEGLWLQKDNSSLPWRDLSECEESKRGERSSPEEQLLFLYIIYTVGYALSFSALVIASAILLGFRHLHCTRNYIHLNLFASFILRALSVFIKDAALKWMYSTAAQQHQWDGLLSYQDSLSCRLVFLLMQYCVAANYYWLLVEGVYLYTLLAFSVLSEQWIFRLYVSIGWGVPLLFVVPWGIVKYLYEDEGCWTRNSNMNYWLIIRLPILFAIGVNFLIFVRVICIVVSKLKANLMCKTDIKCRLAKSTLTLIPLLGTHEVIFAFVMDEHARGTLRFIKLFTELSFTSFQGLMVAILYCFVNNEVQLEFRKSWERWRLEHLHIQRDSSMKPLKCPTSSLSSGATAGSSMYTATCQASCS

[3] = target: T1, hGIPR (Homo sapiens, UniProt P48546); test: Human in vitro potency (pEC50) at hGIPR; type: cell-based
T1 sequence (P48546 22-466): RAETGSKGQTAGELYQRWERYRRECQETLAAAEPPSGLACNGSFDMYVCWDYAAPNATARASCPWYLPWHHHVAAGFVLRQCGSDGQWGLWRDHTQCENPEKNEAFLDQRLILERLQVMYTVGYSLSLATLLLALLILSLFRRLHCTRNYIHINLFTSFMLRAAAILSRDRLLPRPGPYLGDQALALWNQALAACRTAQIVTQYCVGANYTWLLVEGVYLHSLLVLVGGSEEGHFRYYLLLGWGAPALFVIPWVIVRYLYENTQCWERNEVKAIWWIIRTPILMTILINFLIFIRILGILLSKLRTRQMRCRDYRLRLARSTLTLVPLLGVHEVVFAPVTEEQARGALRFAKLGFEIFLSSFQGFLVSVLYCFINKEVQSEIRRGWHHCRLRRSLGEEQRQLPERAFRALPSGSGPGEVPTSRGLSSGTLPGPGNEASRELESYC

[4] = Solubility in water or saline at room temperature, visual inspection; type: physicochemical
Excerpt: Samples were visually inspected for clarity of the sample, any appearance of turbidity or haziness.

[5] = Stability in water or saline at 37° C. and room temperature, 30 days, LC/MS and HPLC purity; type: physicochemical
Excerpt: Samples were withdrawn at a regular interval for 30 days and analyzed by LC/MS and HPLC for determination of purity and mass of the degradation product.

[6] = Steady state plasma concentrations of glucagon analogs given subcutaneously by osmotic minipump; type: in vivo, rat
[7] = Body weight change in diet-induced obese rats over 27 days, Compound A1 with or without exenatide; type: in vivo, rat
[8] = Clearance following intravenous infusion, acylated peptides (1-hour infusion, 0.033 mg/kg); details: rat, in vivo, Table 8, male rats, unit inferred
[9] = 3-hour subcutaneous infusion pharmacokinetics; details: male, rat, in vivo
Protocol: Peptides were formulated in sterile saline and administered as a 3-hour subcutaneous infusion to non-fasted male Wistar Han or Sprague-Dawley rats (n=3 per group) at a final dose of 0.3 or 0.1 mg/kg via a cannula placed into the subcutaneous space between the scapulae. […] Plasma was prepared by centrifugation and stored at −80° C. until analysis.
Protein Precipitation: All 96-well plates were coated with a blocking agent to mitigate non-specific binding of peptides. Plasma samples (75 uL) were added to a 96-well plate containing 200 uL of 2:1 ethanol:acetonitrile containing 0.1% TFA and mixed well via aspiration. Plates were capped, vortex-mixed and centrifuged. Supernatants (215 uL) were transferred to a clean 96-well plate, evaporated to dryness under nitrogen flow and then reconstituted in 75 μL of 20% acetonitrile in water containing 0.10% formic acid.
Solid-Phase Extraction: Samples were diluted 3-fold with 5% NH4OH (aq) and loaded onto an Oasis MAX microElution plate (Waters Corp, Milford, MA) that had been pre-conditioned with 200 uL each of methanol and 5% NH4OH (aq). The plate was washed with 200 uL 5% NH4OH (aq), followed by 200 uL 20% acetonitrile in water. […]
All calibration standards were prepared in control rat plasma containing K2EDTA and protease inhibitor cocktail. […] Peptides were quantified my monitoring one or more product ions produced from a multiply charged parent ion.

[10] = Clearance at intravenous infusion rate of 10 mcg/kg/hr; details: for clearance: rat, in vivo, 10 mcg/kg/hr
[11] = 3-hour intravenous infusion pharmacokinetics, peptide clearance (CL); details: male, rat, in vivo
[12] = Body weight change in DIO Long Evans rats after 13 days continuous dosing by osmotic pump; details: for weight loss compared to vehicle control after 13 days: DIO LE rats, single agent; for ED50 of weight loss: DIO rats; for common maximal weight loss response: over 13 days, fits constrained to share it (FIG. 9)
Protocol: Rats were 15-17 weeks old at the start of the study. The rats were housed 1 per cage and given ad libitum access to high fat diet (Harlan TD.95217, 4.3 kcal/g) and water, maintained on a 12 hr light/dark cycle from 5:00 AM to 5:00 PM at 21° C. and 50% relative humidity and allowed to acclimate for at least 10 days prior to the surgeries. Baseline fat mass and non-fat mass measurements were taken 3 days before the start of peptide infusion using a QMR instrument (Echo Medical Systems, Houston, TX). Body weight measurements were taken 2 times/week starting three days before the surgery. Rats were randomized according to their percent body fat mass and/or body weight into the various treatment groups (n=4-6 rats/group). […] On the day of surgery, rats were anesthetized under isoflurane and the dorsal skin surface was shaved and cleansed. Rats were injected SC with Flunexin (2.5 mg/kg). A 1-2 cm surgical incision was made between the scapulae. Using blunt dissection, a 2-3 cm subcutaneous tunnel was created into which the sterile, filled, mini-osmotic pump was introduced. The skin opening was closed with a skin staple. Each rat was implanted with either one or two osmotic pumps containing vehicle or peptide according to their treatment group. All the data are presented as mean±SEM. The data were analyzed in Excel and/or Prism (GraphPad Software, Inc., La Jolla, CA) using one-way ANOVA to compare each group to the appropriate control group.

[13] = rat, in vivo
[14] = in vivo; details: rat, iv
[15] = FIGURE 2B
[16] = hGLP1 pEC50 (cAMP mean (n = 3): 11 point curve starting at 1 nM, Table 3)
[17] = hGLP1 pEC50 (cAMP) mean (n = 9): 11 point curve starting at 500 uM, Table 2A
[18] = 13 days infusion, fits sharing vehicle response and common maximum (FIG. 9)

Compound: CC(C)C[C@H](NC(=O)[C@H](Cc1ccc(O)cc1)NC(=O)[C@H](CCCCN)NC(=O)[C@H](CO)NC(=O)[C@H](Cc1ccc(O)cc1)NC(=O)[C@H](CC(=O)O)NC(=O)[C@H](CO)NC(=O)[C@@H](NC(=O)[C@H](Cc1ccccc1)NC(=O)[C@@H](NC(=O)CNC(=O)[C@H](Cc1c[nH]cn1)NC(=O)[C@H](CO)NC(=O)[C@@H](N)Cc1ccc(O)cc1)[C@@H](C)O)[C@@H](C)O)C(=O)N[C@@H](CC(=O)O)C(=O)NC(C)(C)C(=O)N[C@@H](CCCCN)C(=O)N[C@@H](Cc1ccc(O)cc1)C(=O)N[C@@H](C)C(=O)N[C@@H](CCC(N)=O)C(=O)N[C@@H](CCC(=O)O)C(=O)N[C@@H](Cc1ccccc1)C(=O)N[C@H](C(=O)NC(C)(C)C(=O)N[C@@H](Cc1c[nH]c2ccccc12)C(=O)N[C@@H](CC(C)C)C(=O)N[C@@H](CCC(=O)O)C(=O)N[C@@H](CC(=O)O)C(=O)N[C@@H](CCC(=O)O)C(=O)N1CCC[C@H]1C(=O)N[C@@H](CO)C(=O)N[C@@H](CO)C(=O)NCC(=O)N[C@@H](C)C(=O)N1CCC[C@H]1C(=O)N1CCC[C@H]1C(=O)N1CCC[C@H]1C(=O)N[C@@H](CO)C(=O)O)C(C)C [Compound A1] (H-YSHGTFTSDYSKYLD[Aib]KYAQEFV[Aib]WLEDEPSSGAPPPS-OH; N-terminus assumed)
- EC50 [1]: 0.0251 nM
- activation profile at the human glucagon receptor (GCGR) ([1]; FIG. 1A): nearly equipotent on GCGR
- activation profile at the human GLP-1 receptor (GLP-1R) ([2]; FIG. 1B): inactive on GLP-1R
- EC50 ([2]; GLP-1R pEC50, Table 7, GLP-1R): > 1 µM
- EC50 ([2]; Human in vitro Potency (pEC50) hGLP-1R, Table 6): 6.31 µM
- EC50 [2, 16]: 6.31 µM
- EC50 [2, 17]: 6.31 µM
- EC50 [3]: > 10 µM
- solubility ([4]; Table 3, room temperature, read-out: Solubility in water): > 200 mg/mL
- Physiochemical Properties Solubility ([4]; Table 6, unit not given): >200
- Stability 1 mg/ml in water at 37 degC ([5]; Table 3, % printed only in cells of A1-A6): >71%
- Physiochemical Properties Stability ([5]; Table 6): >95%
- mode of clearance ([6]; FIG. 6, steady state plasma concentration vs inulin/GFR): consistent with being via glomerular filtration; also recorded: cleared mainly by glomerular filtration
- subcutaneous bioavailability ([6]; sc osmotic minipump, rat): high
- interaction of the combination with exenatide on weight loss ([7]; 27 days, Compound A1 24 and 50 mcg/kg/day with exenatide 10 mcg/kg/day): supra-additive (synergistic) effect
- maximal weight loss response, combination with exenatide ([7]; 27 days, Compound A1 with exenatide 10 mcg/kg/day): ~47%
- increase in body weight over 27 days ([7]; DIO rats, Compound A1 alone 7.5 mcg/kg/day): ~4%
- increase in body weight over 27 days ([7]; DIO rats, Compound A1 alone 24 mcg/kg/day): ~4%
- decrease in body weight over 27 days ([7]; DIO rats, Compound A1 alone, highest infusion rate (50 mcg/kg/day)): 16.8%
- clearance ([8]; read-out: CL (IV/SubQ)): 11.5 mL/min/kg
- half-life ([8]; read-out: T ½ (converted)): 49.8 min
- bioavailability [9]: 74%
- clearance compared with exenatide and glucagon ([10]; FIG. 7): less than that of exenatide and glucagon
- mode of clearance ([10]; FIG. 7, Table 5 values close to GFR): cleared from plasma via glomerular filtration
- clearance ([10]; Rat PK Cl, Table 6, unit inferred): 11.5 mL/min/kg
- clearance ([10]; iv, CL mL/min/kg, Table 5, intravenous infusion rate 10 mcg/kg/hr): 10.6 mL/min/kg
- clearance [11]: 11.5 mL/min/kg
- weight loss compared to vehicle control after 13 days ([12]; 0.01 mg/kg/day): 5.6%
- weight loss compared to vehicle control after 13 days ([12]; 0.03 mg/kg/day): 3.5%
- weight loss compared to vehicle control after 13 days ([12]; 0.1 mg/kg/day): 10%
- weight loss compared to vehicle control after 13 days ([12]; 0.3 mg/kg/day): 22.6%
- ED50 of weight loss [12, 18]: 51 µg/kg/day
- ED50 of weight loss ([12]; 13 days sc minipump, 4-parameter sigmoid fit of each agent (FIG. 8; Table 6 prints no unit)): 65.7 µg/kg/day
- % Weight loss Single ([12]; Table 6, rat in vivo): 26%
- in vivo potency compared with exenatide ([12]; administered alone): almost as potent in vivo as exenatide
- maximal weight loss relative to exenatide ([12]; greater, administered alone): 2.3 fold
- common maximal weight loss response [12]: 27.2%

Compound: CC(C)C[C@H](NC(=O)[C@H](Cc1ccc(O)cc1)NC(=O)[C@H](CCCCN)NC(=O)[C@H](CO)NC(=O)[C@H](Cc1ccc(O)cc1)NC(=O)[C@H](CC(=O)O)NC(=O)[C@H](CO)NC(=O)[C@@H](NC(=O)[C@H](Cc1ccccc1)NC(=O)[C@@H](NC(=O)CNC(=O)[C@H](CCC(N)=O)NC(=O)[C@H](CO)NC(=O)[C@@H](N)Cc1ccc(O)cc1)[C@@H](C)O)[C@@H](C)O)C(=O)N[C@@H](CC(=O)O)C(=O)N[C@@H](C)C(=O)N[C@@H](C)C(=O)N[C@@H](CCCNC(=N)N)C(=O)N[C@@H](C)C(=O)N[C@@H](CCC(N)=O)C(=O)N[C@@H](CCC(=O)O)C(=O)N[C@@H](Cc1ccccc1)C(=O)N[C@H](C(=O)N[C@@H](CCCCN)C(=O)N[C@@H](Cc1c[nH]c2ccccc12)C(=O)N[C@@H](CC(C)C)C(=O)N[C@@H](CCC(=O)O)C(=O)N[C@@H](CC(=O)O)C(=O)N[C@@H](CCC(=O)O)C(=O)N1CCC[C@H]1C(=O)N[C@@H](CCCCN)C(=O)N[C@@H](CO)C(=O)N[C@@H](CCCCN)C(=O)N[C@@H](CO)C(=O)N1CCC[C@H]1C(=O)N1CCC[C@H]1C(=O)N1CCC[C@H]1C(=O)N[C@@H](CO)C(N)=O)C(C)C [Compound A3] (H-YSQGTFTSDYSKYLDAARAQEFVKWLEDEPKSKSPPPS-NH2; N-terminus assumed)
- EC50 [2, 16]: 0.2 µM
- EC50 [2, 17]: 0.2 µM
- solubility ([4]; Solubility in water mg/ml): > 200 mg/mL
- Stability 1 mg/ml in water at 37 degC [5]: >64%
- mode of clearance [13]: cleared from plasma via glomerular filtration
- clearance [14]: 10.7 mL/min/kg
- CL [15]: 12.5 ± 1.6 mL/min/kg
- ED50 of weight loss [12, 18]: 535 µg/kg/day
- common maximal weight loss response [12]: 27.2%
